Measured values: US10407446B2, “Amino-triazolopyridine compounds and their use in treating cancer” (AstraZeneca AB, priority 2016, dated 2019)
Read-outs that look alike come from different tables or passages of the source.

Legend:
TTK = TTK (Homo sapiens (Human), UniProt P33981); assay: TTK enzyme assay (LanthaScreen Eu Kinase Binding assay); conditions: mean of at least 2 experiments
Excerpt: The LanthaScreen® Eu Kinase Binding assay format uses binding of an Alexa Fluor® conjugate or “tracer” to a kinase, which is detected by addition of a Eu-labeled anti-tag antibody. […] The degree of FRET measured in the assay is used to determine the binding of a compound.
Plates were then read using a fluorescence plate reader.

JAK1 = JAK1 (Homo sapiens (Human), UniProt P23458); assay: JAK1 enzyme assay (Z'-LYTE); type: biochemical; conditions: 75 μM ATP; mean of at least 2 experiments; read-out: JAK1 enz pIC50 (converted)
Chain of JAK1 (P23458 whole entry): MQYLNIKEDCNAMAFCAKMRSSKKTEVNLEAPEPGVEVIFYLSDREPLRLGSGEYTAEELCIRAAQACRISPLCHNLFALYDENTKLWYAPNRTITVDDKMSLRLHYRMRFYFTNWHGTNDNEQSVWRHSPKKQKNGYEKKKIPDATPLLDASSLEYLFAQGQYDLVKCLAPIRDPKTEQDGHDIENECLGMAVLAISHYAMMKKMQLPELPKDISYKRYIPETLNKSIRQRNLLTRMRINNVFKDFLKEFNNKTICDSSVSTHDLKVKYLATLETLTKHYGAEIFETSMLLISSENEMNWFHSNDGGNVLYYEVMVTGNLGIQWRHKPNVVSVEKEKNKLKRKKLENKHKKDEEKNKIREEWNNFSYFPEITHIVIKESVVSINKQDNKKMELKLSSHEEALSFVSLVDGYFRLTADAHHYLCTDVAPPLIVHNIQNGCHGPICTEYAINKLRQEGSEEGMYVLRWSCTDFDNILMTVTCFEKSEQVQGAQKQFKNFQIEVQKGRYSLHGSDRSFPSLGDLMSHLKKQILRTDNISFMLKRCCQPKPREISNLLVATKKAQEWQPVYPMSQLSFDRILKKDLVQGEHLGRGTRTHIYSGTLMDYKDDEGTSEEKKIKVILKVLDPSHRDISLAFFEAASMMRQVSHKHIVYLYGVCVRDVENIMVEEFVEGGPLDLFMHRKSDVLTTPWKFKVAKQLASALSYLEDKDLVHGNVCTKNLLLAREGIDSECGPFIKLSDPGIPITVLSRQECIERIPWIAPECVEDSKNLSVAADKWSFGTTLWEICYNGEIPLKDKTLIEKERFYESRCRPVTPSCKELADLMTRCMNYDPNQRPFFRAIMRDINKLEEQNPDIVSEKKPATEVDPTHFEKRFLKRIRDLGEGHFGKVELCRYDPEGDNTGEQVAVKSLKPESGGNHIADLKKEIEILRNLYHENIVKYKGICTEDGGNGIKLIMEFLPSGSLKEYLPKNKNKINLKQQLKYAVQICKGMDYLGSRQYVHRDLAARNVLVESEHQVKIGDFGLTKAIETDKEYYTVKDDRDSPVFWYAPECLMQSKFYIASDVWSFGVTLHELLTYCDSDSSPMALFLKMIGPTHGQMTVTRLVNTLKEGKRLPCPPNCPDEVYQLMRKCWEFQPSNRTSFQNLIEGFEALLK
Method: (§1) d) Aurora-A, Aurora-B, JAK1, JAK2, JAK3 Enzyme Assays
(§2) The inhibitory activity of compounds against AURKA, AURKB, JAK1, JAK2 and JAK3 was determined in Z′-LYTE® assays run by ThermoFisher Scientific as part of their SelectScreen® Biochemical Kinase Profiling Service. The Z′-LYTE® biochemical assay format employs a fluorescence-based, coupled-enzyme format and is based on the differential sensitivity of phosphorylated and non-phosphorylated peptides to proteolytic cleavage. The peptide substrate is labeled with two fluorophores—one at each end—that make up a FRET pair. In the primary reaction, the kinase transfers the gamma-phosphate of ATP to a single tyrosine, serine or threonine residue in a synthetic FRET-peptide. In the secondary reaction, a site-specific protease recognises and cleaves non-phosphorylated FRET-peptides. Phosphorylation of FRET-peptides suppresses cleavage by the Development Reagent. Cleavage disrupts FRET between the donor (i.e., coumarin) and acceptor (i.e., fluorescein) fluorophores on the FRET-peptide, whereas uncleaved, phosphorylated FRET-peptides maintain FRET. A ratiometric method, which calculates the ratio (the Emission Ratio) of donor emission to acceptor emission after excitation of the donor fluorophore at 400 nm, is used to quantitate reaction progress. Both cleaved and uncleaved FRET-peptides contribute to the fluorescence signals and therefore to the Emission Ratio. The extent of phosphorylation of the FRET-peptide can be calculated from the Emission Ratio.
(§3) 2.4 μL Kinase Buffer (50 mM HEPES pH 7.5, 0.01% BRIJ-35, 10 mM MgCl2, 1 mM EGTA), 5 μL 2× Peptide/Kinase mixture (detailed below for each kinase) and 2.5 μL 4× ATP Solution (prepared in Kinase Buffer) were added separately to the compound plates, placed on a plate shaker for 30 sec, and then incubated for 60 mins at room temperature. […] Assay plates were placed on a plate shaker for 30 sec, incubated for 60 mins at room temperature, and then read using a fluorescence plate reader.

JAK2 = JAK2 (Homo sapiens (Human), UniProt O60674); assay: JAK2 enzyme assay (Z'-LYTE); type: biochemical; conditions: 25 μM ATP; mean of at least 2 experiments; read-out: JAK2 enz pIC50 (converted)
Chain of JAK2 (O60674 whole entry): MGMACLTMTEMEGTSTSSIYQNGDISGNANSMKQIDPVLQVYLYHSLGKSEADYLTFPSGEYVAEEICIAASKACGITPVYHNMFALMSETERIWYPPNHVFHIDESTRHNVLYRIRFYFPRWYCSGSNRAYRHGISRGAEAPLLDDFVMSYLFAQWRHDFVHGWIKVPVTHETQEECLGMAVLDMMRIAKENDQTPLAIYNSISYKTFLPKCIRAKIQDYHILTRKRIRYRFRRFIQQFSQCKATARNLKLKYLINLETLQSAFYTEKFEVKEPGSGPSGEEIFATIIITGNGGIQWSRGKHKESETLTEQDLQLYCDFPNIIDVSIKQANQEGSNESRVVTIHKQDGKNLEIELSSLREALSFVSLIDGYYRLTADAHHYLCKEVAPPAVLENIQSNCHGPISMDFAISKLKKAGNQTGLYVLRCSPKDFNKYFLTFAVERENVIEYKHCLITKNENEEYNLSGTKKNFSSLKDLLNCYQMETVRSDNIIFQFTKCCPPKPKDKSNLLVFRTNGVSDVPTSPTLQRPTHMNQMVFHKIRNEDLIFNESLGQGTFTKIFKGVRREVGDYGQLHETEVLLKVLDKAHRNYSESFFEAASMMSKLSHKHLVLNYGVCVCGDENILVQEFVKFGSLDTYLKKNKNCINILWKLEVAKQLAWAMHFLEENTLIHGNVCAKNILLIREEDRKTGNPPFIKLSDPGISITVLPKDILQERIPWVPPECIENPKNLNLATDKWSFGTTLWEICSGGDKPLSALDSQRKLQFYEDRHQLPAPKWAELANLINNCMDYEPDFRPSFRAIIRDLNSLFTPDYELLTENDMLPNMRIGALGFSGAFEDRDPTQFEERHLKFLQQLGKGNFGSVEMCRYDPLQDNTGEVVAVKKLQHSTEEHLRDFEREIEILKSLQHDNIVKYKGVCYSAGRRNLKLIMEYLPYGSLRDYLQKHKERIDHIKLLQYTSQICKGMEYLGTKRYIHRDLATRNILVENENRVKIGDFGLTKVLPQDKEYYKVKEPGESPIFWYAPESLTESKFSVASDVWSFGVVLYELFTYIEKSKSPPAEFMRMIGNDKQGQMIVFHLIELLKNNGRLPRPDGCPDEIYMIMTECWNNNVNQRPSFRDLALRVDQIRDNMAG
Method: as §1, §2, §3

JAK3 = JAK3 (Homo sapiens (Human), UniProt P52333); assay: JAK3 enzyme assay (Z'-LYTE); type: biochemical; conditions: 10 μM ATP; mean of at least 2 experiments; read-out: JAK3 enz pIC50 (converted)
Chain of JAK3 (P52333 whole entry): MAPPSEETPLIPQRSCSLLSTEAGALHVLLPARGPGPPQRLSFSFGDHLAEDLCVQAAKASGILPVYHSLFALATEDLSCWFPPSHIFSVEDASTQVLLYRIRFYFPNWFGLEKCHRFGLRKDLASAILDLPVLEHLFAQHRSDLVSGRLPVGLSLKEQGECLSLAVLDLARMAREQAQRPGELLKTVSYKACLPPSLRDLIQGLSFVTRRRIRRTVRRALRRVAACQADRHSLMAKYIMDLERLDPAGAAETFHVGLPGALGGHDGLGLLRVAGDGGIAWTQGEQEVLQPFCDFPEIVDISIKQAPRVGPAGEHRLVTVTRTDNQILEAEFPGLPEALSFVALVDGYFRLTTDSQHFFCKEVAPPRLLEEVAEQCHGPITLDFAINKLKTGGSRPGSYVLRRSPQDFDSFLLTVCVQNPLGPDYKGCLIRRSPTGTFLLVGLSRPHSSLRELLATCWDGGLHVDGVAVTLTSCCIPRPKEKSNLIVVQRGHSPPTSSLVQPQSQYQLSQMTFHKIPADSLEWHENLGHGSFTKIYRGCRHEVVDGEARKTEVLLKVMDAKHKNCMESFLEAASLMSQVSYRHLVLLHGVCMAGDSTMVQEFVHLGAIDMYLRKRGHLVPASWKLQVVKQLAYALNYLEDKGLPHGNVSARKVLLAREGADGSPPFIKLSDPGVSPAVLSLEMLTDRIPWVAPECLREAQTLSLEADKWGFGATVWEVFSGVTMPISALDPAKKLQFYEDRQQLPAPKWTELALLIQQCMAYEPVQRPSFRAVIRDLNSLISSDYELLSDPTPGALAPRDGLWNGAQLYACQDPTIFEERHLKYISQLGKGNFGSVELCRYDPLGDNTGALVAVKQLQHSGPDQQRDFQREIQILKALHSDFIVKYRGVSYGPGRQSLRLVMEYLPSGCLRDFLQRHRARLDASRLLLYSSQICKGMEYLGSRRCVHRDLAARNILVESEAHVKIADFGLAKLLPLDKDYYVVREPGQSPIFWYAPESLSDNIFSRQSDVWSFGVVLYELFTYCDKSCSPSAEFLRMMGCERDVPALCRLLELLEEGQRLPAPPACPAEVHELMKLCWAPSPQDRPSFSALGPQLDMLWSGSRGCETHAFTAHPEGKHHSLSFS
Excerpt: The 2× AURKB (Aurora B)/Ser/[…]

AURKA (Aurora A) = AURKA (Aurora A) (Homo sapiens (Human), UniProt O14965); assay: Aurora-A enzyme assay (Z'-LYTE); type: biochemical; conditions: 10 μM ATP; mean of at least 2 experiments; read-out: AurA enz pIC50 (converted)
Chain of AURKA (Aurora A) (O14965 whole entry): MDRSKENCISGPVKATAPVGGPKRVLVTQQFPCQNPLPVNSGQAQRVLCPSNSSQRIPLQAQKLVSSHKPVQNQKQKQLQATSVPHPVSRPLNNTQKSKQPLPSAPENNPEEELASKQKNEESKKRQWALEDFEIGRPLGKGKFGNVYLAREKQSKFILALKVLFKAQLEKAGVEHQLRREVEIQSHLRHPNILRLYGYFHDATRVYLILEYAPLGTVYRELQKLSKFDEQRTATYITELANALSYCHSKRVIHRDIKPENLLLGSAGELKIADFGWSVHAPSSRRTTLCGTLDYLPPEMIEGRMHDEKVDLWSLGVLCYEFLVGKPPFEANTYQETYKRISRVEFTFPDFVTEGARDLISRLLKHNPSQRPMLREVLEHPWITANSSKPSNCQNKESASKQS
Method: as §1, §2, §3

AURKB (Aurora B) = AURKB (Aurora B) (Homo sapiens (Human), UniProt Q96GD4); assay: Aurora-B enzyme assay (Z'-LYTE); type: biochemical; conditions: 75 μM ATP; mean of at least 2 experiments; read-out: AurB enz pIC50 (converted)
Chain of AURKB (Aurora B) (Q96GD4 whole entry): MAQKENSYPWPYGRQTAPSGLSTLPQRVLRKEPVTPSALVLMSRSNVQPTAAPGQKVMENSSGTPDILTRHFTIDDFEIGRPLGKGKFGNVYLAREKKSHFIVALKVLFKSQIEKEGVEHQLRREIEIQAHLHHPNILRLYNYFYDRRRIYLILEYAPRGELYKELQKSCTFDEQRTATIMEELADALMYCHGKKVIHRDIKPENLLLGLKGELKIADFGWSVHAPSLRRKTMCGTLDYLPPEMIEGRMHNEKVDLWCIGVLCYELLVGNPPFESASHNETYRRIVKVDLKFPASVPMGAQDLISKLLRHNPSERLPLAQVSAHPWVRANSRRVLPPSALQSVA
Method: as §1, §2, §3

DNAPK [1] = molecular target: T1, DNAPK (Homo sapiens (Human), UniProt P78527); type: biochemical; conditions: mean of at least 2 experiments; 18 μM ATP; read-out: DNA-PK enz pIC50 (converted)
Excerpt: The following assays were used to measure the effects of the compounds described herein: a) DNAPK enzyme potency assay; b) DNAPK cellular potency assay. During the description of the assays, generally: • i. The following abbreviations have been used; DMSO=Dimethyl Sulphoxide; DTT=Dithiothreitol; EDTA=Ethylenediaminetetraacetic Acid, TR-FRET=Time Resolved Fluorescence Resonance Energy Transfer, ATP=Adenosine triphosphate, DTT=Dithiothreitol, DNA=Deoxyribonucleic acid, HEPES=(2-hydroxyethyl)-1-piperazineethanesulfonic acid • ii.

DNAPK [2] = molecular target: T1, DNAPK; assay: DNAPK cellular potency assay (DNA-PK cell), pS2056-DNAPK ELISA in irradiated A549 cells; type: cell-based; conditions: A549 cell line, 8 Gy radiation, mean of at least 2 experiments, read-out: DNA-PK cell pIC50 (converted)

Chain of TTK (P33981 whole entry): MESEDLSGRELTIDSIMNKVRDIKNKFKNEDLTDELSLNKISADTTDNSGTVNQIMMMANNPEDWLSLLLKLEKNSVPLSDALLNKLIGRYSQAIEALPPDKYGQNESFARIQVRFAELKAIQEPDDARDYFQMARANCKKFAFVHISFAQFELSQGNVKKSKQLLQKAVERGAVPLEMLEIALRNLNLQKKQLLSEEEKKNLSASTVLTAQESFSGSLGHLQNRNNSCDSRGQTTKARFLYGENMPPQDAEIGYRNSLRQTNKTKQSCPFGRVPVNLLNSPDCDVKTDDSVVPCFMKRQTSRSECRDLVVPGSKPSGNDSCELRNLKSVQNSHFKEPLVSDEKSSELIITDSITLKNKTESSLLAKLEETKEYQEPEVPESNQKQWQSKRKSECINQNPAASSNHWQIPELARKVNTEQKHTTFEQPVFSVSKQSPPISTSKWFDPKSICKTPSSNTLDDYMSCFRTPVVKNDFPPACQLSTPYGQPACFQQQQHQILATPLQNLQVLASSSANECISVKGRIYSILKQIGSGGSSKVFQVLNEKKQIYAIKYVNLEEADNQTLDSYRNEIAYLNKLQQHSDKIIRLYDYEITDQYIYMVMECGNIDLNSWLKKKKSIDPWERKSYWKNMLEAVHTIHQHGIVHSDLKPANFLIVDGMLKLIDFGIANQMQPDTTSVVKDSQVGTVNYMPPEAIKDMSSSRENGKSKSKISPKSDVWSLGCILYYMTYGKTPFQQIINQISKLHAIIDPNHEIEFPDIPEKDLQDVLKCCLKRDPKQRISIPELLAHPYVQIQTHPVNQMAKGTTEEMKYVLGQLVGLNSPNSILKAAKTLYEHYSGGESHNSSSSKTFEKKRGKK

Row | SMILES | TTK enz pIC50 (TTK) | IC50 (JAK1) [µM] | IC50 (JAK2) [µM] | IC50 (JAK3) [µM] | IC50 (AURKA (Aurora A)) [µM] | IC50 (AURKB (Aurora B)) [µM] | IC50 (DNAPK [1]) [µM] | IC50 (DNAPK [2]) [µM] | IC50 (TTK; read-out: TTK enz pIC50 (converted)) [µM]
1 | Cc1cc2ncnn2cc1Nc1ncc2c(n1)n([C@H]1CC[C@@H](O)CC1)c(=O)n2C [Example 2, 9-((1s,4s)-4-hydroxycyclohexyl)-7-methyl-2-((7-methyl-[1,2,4]triazolo[1,5-a]pyridin-6-yl)amino)-7,9-dihydro-8H-purin-8-one] | 6.1 | > 10 | > 10 | > 10 | > 10 | > 10 |  |  | 
2 | Cc1cc2ncnn2cc1Nc1ncc2c(n1)n(C1CCOCC1)c(=O)n2C [Example 3, 7-methyl-2-((7-methyl-[1,2,4]triazolo[1,5-a]pyridin-6-yl)amino)-9-(tetrahydro-2H-pyran-4-yl)-7,9-dihydro-8H-purin-8-one] |  | > 10 | > 10 | > 10 | > 10 | > 10 |  |  | 
3 | Cc1nc2cc(C)c(Nc3ncc4c(n3)n(C3CCOCC3)c(=O)n4C)cn2n1 [Example 4, 2-((2,7-dimethyl-[1,2,4]triazolo[1,5-a]pyridin-6-yl)amino)-7-methyl-9-(tetrahydro-2H-pyran-4-yl)-7,9-dihydro-8H-purin-8-one] | 5.1 | > 10 | > 10 | > 10 | > 10 | > 10 | 0.00126 | 0.158 | 
4 | Cc1cc2ncnn2cc1Nc1ncc2c(n1)n([C@@H]1CCCOC1)c(=O)n2C [Example 8, (R)-7-methyl-2-((7-methyl-[1,2,4]triazolo[1,5-a]pyridin-6-yl)amino)-9-(tetrahydro-2H-pyran-3-yl)-7,9-dihydro-8H-purin-8-one] | 5.2 | > 10 | > 10 | > 10 | > 10 | > 10 | 0.000398 | 0.0631 | 
5 | Cc1cc2ncnn2cc1Nc1ncc2c(n1)n([C@H]1CC[C@@](C)(O)CC1)c(=O)n2C [Example 10, 9-((1s,4s)-4-hydroxy-4-methylcyclohexyl)-7-methyl-2-((7-methyl-[1,2,4]triazolo[1,5-a]pyridin-6-yl)amino)-7,9-dihydro-8H-purin-8-one] |  | > 10 | > 10 | > 10 | > 10 | > 10 |  |  | 
6 | CO[C@H]1CC[C@H](n2c(=O)n(C)c3cnc(Nc4cn5ncnc5cc4C)nc32)CC1 [Example 6, 9-((1r,4r)-methoxycyclohexyl)-7-methyl-2-((7-methyl-[1,2,4]triazolo[1,5-a]pyridin-6-yl)amino)-7,9-dihydro-8H-purin-8-one] | 5.9 | > 10 | > 10 | > 10 | > 10 | > 10 | 0.000251 | 0.0398 | 
7 | CO[C@H]1CC[C@@H](n2c(=O)n(C)c3cnc(Nc4cn5ncnc5cc4C)nc32)CC1 [Example 5, 9-((1s,4s)-4-methoxycyclohexyl)-7-methyl-2-((7-methyl-[1,2,4]triazolo[1,5-a]pyridin-6-yl)amino)-7,9-dihydro-8H-purin-8-one] | 5.3 | > 10 | > 10 | > 10 | > 10 | > 10 | 0.001 | 0.126 | 
8 | Cc1cc2ncnn2cc1Nc1ncc2c(n1)n(C1CCCCC1)c(=O)n2C [Example 13, 9-cyclohexyl-7-methyl-2-((7-methyl-[1,2,4]triazolo[1,5-a]pyridin-6-yl)amino)-7,9-dihydro-8H-purin-8-one] | 6.3 | > 10 | > 10 | > 10 | 3.98 | > 10 |  |  | 
9 | Cc1cc2ncnn2cc1Nc1ncc2c(n1)n([C@]1(C)CC[C@H](O)CC1)c(=O)n2C [Example 12, 9-((1s,4s)-4-hydroxy-1-methylcyclohexyl)-7-methyl-2-((7-methyl-[1,2,4]triazolo[1,5-a]pyridin-6-yl)amino)-7,9-dihydro-8H-purin-8-one] | 5.8 | > 10 | > 10 | > 10 | > 10 | > 10 | 0.0002 | 0.0398 | 
10 | Cc1cc2ncnn2cc1Nc1ncc2c(n1)n([C@H]1CCOC1)c(=O)n2C [Example 11, (S)-7-methyl-2-((7-methyl-[1,2,4]triazolo[1,5-a]pyridin-6-yl)amino)-9-(tetrahydrofuran-3-yl)-7,9-dihydro-8H-purin-8-one] |  | > 10 | > 10 | > 10 | > 10 | > 10 | 0.000501 | 0.158 | > 7.94
11 | Cc1cc2ncnn2cc1Nc1ncc2c(n1)n([C@H]1CCCOC1)c(=O)n2C [Example 7, (S)-7-methyl-2-((7-methyl-[1,2,4]triazolo[1,5-a]pyridin-6-yl)amino)-9-(tetrahydro-2H-pyran-3-yl)-7,9-dihydro-8H-purin-8-one] | 5.2 | > 10 | > 10 | > 10 | > 10 | > 10 | 0.000158 | 0.0501 | 
12 | Cc1cc2ncnn2cc1Nc1ncc2c(n1)n([C@H]1CC[C@H](O)CC1)c(=O)n2C [Example 1, 9-((1r,4r)-4-hydroxycyclohexyl)-7-methyl-2-((7-methyl-[1,2,4]triazolo[1,5-a]pyridin-6-yl)amino)-7,9-dihydro-8H-purin-8-one] | 5.5 | > 10 | > 10 | > 10 | > 10 | > 10 |  |  | 
13 | Cc1cc2ncnn2cc1Nc1ncc2c(n1)n([C@H]1CC[C@](C)(O)CC1)c(=O)n2C [Example 9, 9-((1r,4r)-4-hydroxy-4-methylcyclohexyl)-7-methyl-2-((7-methyl-[1,2,4]triazolo[1,5-a]pyridin-6-yl)amino)-7,9-dihydro-8H-purin-8-one] |  | > 10 | > 10 | > 10 | > 10 | > 10 |  |  | 
